Assay results reported in patent US20200237766A1, “PKM2 ACTIVATORS IN COMBINATION WITH REACTIVE OXYGEN SPECIES FOR TREATMENT OF CANCER” (TOLERO PHARMACEUTICALS, INC., priority 2017, published 2020).
Counter-ions that a name gives are not always drawn. Like-named read-outs stand apart in the source and are kept apart here.

Columns and labels:
Panc1 cells = test: Cell-titer-Glo cell viability, Panc1 cells; type: cell-based; conditions: Compound 91 at 4 μM
Description: A549 and Pancl cells were plated using 384-well plates at a density of 1,200 cells per well. Cells were plated in RPMI media and allowed to adhere for 24 hours at 37° C. […] Cells were also treated with Compound 91 alone as a control. Cell viability was determined according to the Cell-titer-Glo assay kit and protocol from Promega Biosciences, LLC (Madison, Wis.).
A549 and Panc1 cells were plated according to the procedure described in Example 1. Cells were treated using a concentration gradient of rapamycin (FIGS. 5A-B) or Vosaroxin (a TOPOII poison; FIG. 5C), both in the presence and absence of Compound 91 at a concentration of 4 μM in replicates of 7 per condition. Cell viability was determined using the Cell-titer-Glo assay kit according to the procedure described in the examples above.

A549 cells [1] = test: Cell-titer-Glo cell viability, A549 cells; type: cell-based, human
A549 lung cancer cells = test: A549 xenograft study in athymic nude mice (Example 7), tumor volume; type: in vivo; conditions: combination of doxorubicin 2 mg/kg every 2 days and Compound 91 200 mg/kg every day
Description: (§1) A xenograph study was performed using A549 lung cancer cells to interrogate the in vivo synergy between a representative ROS-producing anti-cancer drug and a PKM2 activator. Mice (6-8 week old female athymic nude) were housed under standard conditions, and allowed food and water ad libitum and injected with 1×10^7 A549 cells per mouse.
(§2) Tumor volume and body weights were measured and recorded twice weekly (FIGS. 7A and 7B, respectively). Upon completion of the study, mice were euthanized and tumor tissues were harvested.

[2] = Body weight in A549 xenograft study (Example 7); type: in vivo; conditions: combination of doxorubicin 2 mg/kg every 2 days and Compound 91 200 mg/kg every day, athymic nude mice
Description: as §1, with “mouse. […] Compound 91 was administered orally at a concentration of 200 mg/kg every day.” for “mouse.”
as §2

A549 cells [3] = test: GSH-Glo glutathione level assay in A549 cells; type: cell-based, human; conditions: treated 48 hours, even at concentrations as low as 0.1 μM
Description: Cells were treated for 48 hours, and then glutathione levels were determined using a GSH-Glo assay kit and procedure from Promega.

PKM2 = PKM2 (Homo sapiens, UniProt P14618); test: PKM2 activation biochemical assay (AC50 / max. response vs fructose 1,6-bisphosphate); conditions: for AC50: biochemical assay, read-out: PKM2 AC50; for Max. Resp. (%): % maximum response in a biochemical assay as compared with Fructose 1,6-bisphosphate
Sequence of PKM2 (P14618 whole entry): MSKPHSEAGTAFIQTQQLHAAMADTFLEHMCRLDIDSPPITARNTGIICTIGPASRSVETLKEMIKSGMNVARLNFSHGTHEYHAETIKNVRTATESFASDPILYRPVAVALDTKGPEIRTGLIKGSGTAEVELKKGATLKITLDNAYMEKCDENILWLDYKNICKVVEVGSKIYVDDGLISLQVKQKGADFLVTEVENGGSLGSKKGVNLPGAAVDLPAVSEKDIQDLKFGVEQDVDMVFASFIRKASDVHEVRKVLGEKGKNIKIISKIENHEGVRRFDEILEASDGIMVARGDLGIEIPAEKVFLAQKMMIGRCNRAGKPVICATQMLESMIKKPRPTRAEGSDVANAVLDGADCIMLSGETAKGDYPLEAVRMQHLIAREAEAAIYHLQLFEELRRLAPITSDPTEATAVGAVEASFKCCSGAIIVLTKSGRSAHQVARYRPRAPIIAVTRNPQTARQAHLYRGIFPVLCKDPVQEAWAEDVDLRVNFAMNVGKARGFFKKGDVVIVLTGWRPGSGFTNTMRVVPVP

[4] = system: A549 human lung cancer cells; test: Subcutaneous A549 human lung cancer xenograft model in BALB/c nude mice (Example 8); type: in vivo, Mus musculus; conditions: Group 2: Doxorubicin 2 mg/kg i.v. Q2D × 3 weeks + vehicle p.o.
Description: A549 human lung cancer cells were inoculated in BALB/c nude mice and treatment was initiated when tumors reached a mean volume of approximately 100 mm^3.
4.5 Randomization 60 mice were enrolled in the study. All animals were randomly allocated to the 6 different study groups. […] Randomization was performed based on “Matched distribution” randomization method using multi-task method (StudyDirector™ software, version 3.1.399.19) on day 13.
After tumor cell inoculation, the animals were checked daily for morbidity and mortality. At the time of routine monitoring, the animals were checked for any effects of tumor growth and treatments on behavior such as mobility, food and water consumption, body weight gain/loss (body weight was measured twice per week, or based on request after randomization), and any other abnormalities. Mortality and observed clinical signs were recorded for individual animals.
Tumor volumes were measured twice weekly in two dimensions using a caliper, and the volume was expressed in mm^3 using the formula: V=(L×W×W)/2, where V is tumor volume, L is tumor length (the longest tumor dimension) and W is tumor width (the longest tumor dimension perpendicular to L).
Tumor weight was measured at the end of study based on the protocol. Dosing as well as tumor and body weight measurement were conducted in a Laminar Flow Cabinet.
Statistical analysis of differences in mean tumor volume among the groups was conducted by Independent-Samples T Test using the data collected.
All data were analyzed with SPSS (Statistical Product and Service Solutions) version 18.0 (IBM, Armonk, N.Y., U.S.). […] All tests were two-sided. P<0.05 was considered to be statistically significant.

[5] = Homo sapiens, A549 cells, anti-cancer drug alone, Cell-titer-Glo, read-out: EC50, cell viability

**Q.** With `CN[C@H]1CN(c2ccc3c(=O)c(C(=O)O)cn(-c4nccs4)c3n2)C[C@@H]1OC` [Vosaroxin] as the molecule, how does the “cell viability: activity in presence vs absence of Compound 91” value (Panc1 cells) read?
**A.** no significant change

**Q.** What about the “cell viability: activity in presence vs absence of Compound 91” value (A549 cells [1]; A549 cells, Compound 91 at 4 μM, Cell-titer-Glo) of the same molecule?
**A.** no significant change

**Q.** Which tumor volume (A549 lung cancer cells) does the source give for `Nc1cccc(F)c1CN(CCC1CCS(=O)(=O)CC1)C(=O)c1cc(C(F)(F)F)n[nH]1` [Compound 91] here?
**A.** best reduction of tumor volume

**Q.** And the body weight [2]?
**A.** no significant body weight reduction or fluctuation

**Q.** What about the “glutathione levels (GSH-Glo)” value (A549 cells [3]) of the same molecule?
**A.** decreased levels of glutathione

**Q.** Which results are given for `CC(C)C[C@H](NC(=O)[C@H](Cc1ccccc1)NC(=O)c1cnccn1)B(O)O` [bortezomib]?
**A.** decrease in EC50 when used in combination with Compound 91 (A549 cells [1]; A549 cells, Compound 91 at 4 μM vs drug alone): ~2 fold; EC50 (A549 cells [1]; [5]): 43.4 nM; EC50 (A549 cells [1]; Homo sapiens, A549 cells, in the presence of Compound 91 at 4 μM, Cell-titer-Glo, read-out: EC50, cell viability, in combination with Compound 91): 27 nM

**Q.** Which “glutathione levels (GSH-Glo)” value (A549 cells [3]) does the source give for `Cc1cccc2nc(Cn3cnc4ccccc43)cc(=O)n12` [PP8] here?
**A.** decreased levels of glutathione

**Q.** What about the AC50 (PKM2) of the same molecule?
**A.** 159 nM

**Q.** With `COc1cccc2c1C(=O)c1c(O)c3c(c(O)c1C2=O)C[C@@](O)(C(=O)CO)C[C@@H]3O[C@H]1C[C@H](N)[C@H](O)[C@H](C)O1` [Doxorubicin, doxorubicin, reference compound] as the molecule, how does the “Tumor Size (mm^3) on day 33” value ([4]; Mean ± SEM) read?
**A.** 723.15 ± 129.91 mm^3

**Q.** And the “Tumor Weight (mg) on day 33” value ([4]; Mean ± SEM)?
**A.** 676.9 ± 107.8 mg

**Q.** And the “T/C (%) (tumor size)” value ([4]; day 33)?
**A.** 93%

**Q.** And the “T/C (%) (tumor weight)” value ([4]; day 33)?
**A.** 91%

**Q.** What about the “TGI (%) (tumor size)” value ([4]; day 33) of the same molecule?
**A.** 7%

**Q.** And the “TGI (%) (tumor weight)” value ([4]; day 33)?
**A.** 9%

**Q.** For `O=S(=O)(c1ccc2c(c1)OCCO2)N1CCN(S(=O)(=O)c2c(F)cccc2F)CC1` [DASA, reference compound], which “glutathione levels (GSH-Glo)” value (A549 cells [3]) is on record?
**A.** decreased levels of glutathione

**Q.** With `C=CCNc1c(O)cc2c(O)c1C[C@@H](C)C[C@H](OC)[C@H](O)[C@@H](C)/C=C(\C)[C@H](OC(N)=O)[C@@H](OC)/C=C\C=C(/C)C(=O)N2` [IPI-504, retaspimycin hydrochloride] as the molecule, how does the EC50 (A549 cells [1]; Homo sapiens, A549, read-out: EC50, cell viability) read?
**A.** 59.9 nM

**Q.** With `CNC(=O)c1cc(Oc2ccc(NC(=O)Nc3ccc(Cl)c(C(F)(F)F)c3)cc2)ccn1` [sorafenib] as the molecule, how does the EC50 (A549 cells [1]; A549 cells, in the presence of Compound 91 at 4 μM, Cell-titer-Glo, read-out: EC50, cell viability, in combination with Compound 91) read?
**A.** 7130 nM

**Q.** And the EC50 (A549 cells [1]; [5])?
**A.** 30100 nM

**Q.** Which AC50 (PKM2) does the source give for `Cn1cc(C(=O)c2cccc(Cl)c2Cl)cc1C(N)=O` [CA2] here?
**A.** 17000 nM

**Q.** With `CCN1CCC(N(Cc2ccccc2F)C(=O)c2cc(C(F)(F)F)n[nH]2)C1` (centres unmarked) [Compound 152] as the molecule, how does the “Max. Resp. (%)” value (PKM2) read?
**A.** 68%

**Q.** What about the AC50 (PKM2) of the same molecule?
**A.** 13500 nM

**Q.** Which “Max. Resp. (%)” value (PKM2) does the source give for `CCOCCN(Cc1ccccc1Cl)C(=O)c1cc(C(F)(F)F)n[nH]1` [Compound 29] here?
**A.** 87%

**Q.** Which “Max. Resp. (%)” value (PKM2) does the source give for `O=C(c1cc(C(F)(F)F)n[nH]1)N(CCN1CCCCCC1)Cc1cccc2nc[nH]c12` [Compound 208] here?
**A.** 100%

**Q.** And the AC50 (PKM2)?
**A.** 125 nM
